Where two headings read alike, the source gives them in different places.
Key:
[1] = system: MiaPaCa-2 cells; assay: Cytotoxicity assay in MiaPaCa-2 (XTT, 72 h); type: cell-based; conditions: for inhibition at 1 µM / inhibition at 10 µM / Cell cytotoxicity assay (% Inhibition at 1 μM) / Cell cytotoxicity assay (% Inhibition at 10 μM): DMSO control = 0% inhibition; for inhibition at 1 µM: read-out: Cell cytotoxicity assay (% Inhibition at 1 μM); for inhibition at 10 µM: read-out: Cell cytotoxicity assay (% Inhibition at 10 μM); for IC50: XTT, read-out: Cell cytotoxicity assay IC50 in range
Procedure: MiaPaCa-2 Cells (ATCC) were seeded in 96 well plates (Costar clear flat bottom) at a density of 3000 cells/well and allowed to settle overnight. Test compounds were dissolved in dimethyl sulphoxide (DMSO-Sigma Aldrich, D2650) and incubated with MiaPaCa-2 cells for 72 h. Post 72 h, 50 μl XTT (1 mg/mL; Invitrogen, X 6493) and PMS ([…]; Sigma Aldrich, P9625) reagents were added to the cells in 100 μl of cDMEM (Sigma Aldrich-D5648)+10% FBS (Hyclone-5430088-03)+1×Pen Strep (Sigma Aldrich-P0781). After 1 hour incubation with XTT and PMS absorbance was monitored with Spectramax M3 (Molecular Device). Percentage inhibition of proliferation at 10 μM and 1 μM concentrations was calculated by considering DMSO control as 0% inhibition. IC50 values were plotted using Graph pad prism software (Graph pad Inc, La Jola, Calif., USA).

[2] = target: T1, recombinant NAMPT wild type protein (Homo sapiens, UniProt P43490); assay: NAMPT fluorescence assay; type: biochemical; conditions: 50 ng NAMPT, 2 μM Nam, 10 point dose response; read-out: Fluorescence assay IC50 in range
T1 construct: made in house; host or cells: E. coli
Procedure: The enzymatic assay was standardized using in-house recombinant NAMPT wild type protein from E. coli expression & NAM (Cat #47865-U) as a substrate. The product NMN formed after enzymatic reaction was derivatized to a fluorescent derivative through sequentially reacting with acetophenone/KOH and formic acid. The derivatized fluorescent NMN derivative was detected at 382 nm excitation wavelength and a 445 nm emission wavelength. […] The fluorescence was measured (Excitation at 382 nm & Emission at 445 nm) using Victor^3 V fluorimeter. The data is calculated using the RFU values. The final concentration of DMSO was 2% in the assay. Each individual IC50 was determined using 10 point dose response curve generated by GraphPad Prism software Version 4 (San Diego, Calif., USA) using nonlinear regression curve fit for sigmoidal dose response (variable slope).

T1 sequence (P43490 whole entry): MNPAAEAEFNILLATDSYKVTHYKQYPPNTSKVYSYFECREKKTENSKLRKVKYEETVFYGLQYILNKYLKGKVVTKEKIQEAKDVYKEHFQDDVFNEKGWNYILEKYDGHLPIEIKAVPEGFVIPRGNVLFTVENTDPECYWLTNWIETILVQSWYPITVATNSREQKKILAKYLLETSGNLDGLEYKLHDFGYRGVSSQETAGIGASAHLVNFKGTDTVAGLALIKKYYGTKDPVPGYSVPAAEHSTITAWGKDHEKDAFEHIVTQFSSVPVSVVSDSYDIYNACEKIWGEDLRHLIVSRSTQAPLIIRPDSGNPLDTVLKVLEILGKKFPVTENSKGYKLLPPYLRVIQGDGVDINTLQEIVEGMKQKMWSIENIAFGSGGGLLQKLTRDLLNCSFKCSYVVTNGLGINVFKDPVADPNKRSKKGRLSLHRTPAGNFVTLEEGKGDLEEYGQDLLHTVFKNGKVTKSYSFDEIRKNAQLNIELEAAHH

SMILES	inhibition at 1 µM ([1]; Homo sapiens, MIA PaCa-2, 72 h) [%]	inhibition at 10 µM ([1]; Homo sapiens, MIA PaCa-2, 72 h) [%]	IC50 ([1]; Homo sapiens, MIA PaCa-2, 72 h) [nM]	IC50 [2] [nM]	Cell cytotoxicity assay (% Inhibition at 1 μM) [1] [%]	IC50 [1] [nM]	Cell cytotoxicity assay (% Inhibition at 10 μM) [1] [%]
O=C(NCC1=NOC(COc2cc(Cl)cnc2-c2ccc(F)nc2)C1)c1ccc2nccn2c1 (racemic) [Example 14, N-((5-(((5-chloro-6′-fluoro-[2,3′-bipyridin]-3-yl)oxy)methyl)-4,5-dihydro-isoxazol-3-yl)methyl)imidazo[1,2-a]pyridine-6-carboxamide]	95	95	< 50	10 to 25			
Cc1cc(NC(=O)NCC2=NOC(COc3cccnc3-c3ccc(F)nc3)C2)ccn1 (racemic) [Example 16, 1-((5-(((6′-fluoro-[2,3′-bipyridin]-3-yl)oxy)methyl)-4,5-dihydroisoxazol-3-yl)methyl)-3-(2-methylpyridin-4-yl)urea]	89	89	50 to 250	< 10			
O=C(NCC1=NOC(COc2cccnc2-c2ccc(F)nc2)C1)Nc1ccncc1 (racemic) [Example 17, 1-((5-(((6′-fluoro-[2,3′-bipyridin]-3-yl)oxy)methyl)-4,5-dihydroisoxazol-3-yl)methyl)-3-(pyridin-4-yl)urea]	90	89	< 50	< 10			
O=C(NCC1=NOC(COc2cccnc2-c2ccc(F)nc2)C1)Nc1ccnnc1 (racemic) [Example 18, 1-((5-(((6′-fluoro-[2,3′-bipyridin]-3-yl)oxy)methyl)-4,5-dihydroisoxazol-3-yl)methyl)-3-(pyridazin-4-yl)urea]	90	89	50 to 250	> 25			
Cc1cc(NC(=O)NCC2=NOC(COc3cccnc3-c3cnn(C)c3)C2)ccn1 (racemic) [Example 19, 1-((5-(((2-(1-methyl-1H-pyrazol-4-yl)pyridin-3-yl)oxy)methyl)-4,5-dihydroisoxazol-3-yl)methyl)-3-(2-methylpyridin-4-yl)urea]	17	82	> 250	10 to 25			
O=C(NCC1=NOC(COc2cccnc2-c2ccc(F)nc2)C1)c1ccc2nccn2c1 (single isomer, unassigned) [Example 4a, N-((5-(((6′-fluoro-[2,3′-bipyridin]-3-yl)oxy)methyl)-4,5-dihydroisoxazol-3-yl)methyl)imidazo[1,2-a]pyridine-6-carboxamide]		83		< 10	8	> 250	
O=C(NCC1=NOC(COc2cccnc2-c2ccc(F)nc2)C1)c1ccc2nccn2c1 (single isomer, unassigned) [Example 4b, N-((5-(((6′-fluoro-[2,3′-bipyridin]-3-yl)oxy)methyl)-4,5-dihydroisoxazol-3-yl)methyl)imidazo[1,2-a]pyridine-6-carboxamide]				< 10	95	< 50	94
O=C(NCC1=NOC(COc2cccnc2-c2cccnc2)C1)c1ccc2nccn2c1 (single isomer, unassigned) [Example 7a, N-((5-(([2,3′-bipyridin]-3-yloxy)methyl)-4,5-dihydroisoxazol-3-yl)methyl)-imidazo[1,2-a]pyridine-6-carboxamide]				< 10		< 50	
O=C(NCC1=NOC(COc2cccnc2-c2ccc(Cl)nc2)C1)c1ccc2nccn2c1 (single isomer, unassigned) [Example 8b, N-((5-(((6′-chloro-[2,3′-bipyridin]-3-yl)oxy)methyl)-4,5-dihydroisoxazol-3-yl)methyl)imidazo[1,2-a]pyridine-6-carboxamide]				> 25	92	50 to 250	94
O=C(NCC1=NOC(COc2cc(F)cnc2-c2ccc(F)nc2)C1)c1ccc2nccn2c1 (single isomer, unassigned) [Example 9a, N-((5-(((5,6′-difluoro-[2,3′-bipyridin]-3-yl)oxy)methyl)-4,5-dihydroisoxazol-3-yl)methyl)imidazo[1,2-a]pyridine-6-carboxamide]		90		< 10	12	> 250	
O=C(NCC1=NOC(COc2cc(F)cnc2-c2ccc(F)nc2)C1)c1ccc2nccn2c1 (single isomer, unassigned) [Example 9b, N-((5-(((5,6′-difluoro-[2,3′-bipyridin]-3-yl)oxy)methyl)-4,5-dihydroisoxazol-3-yl)methyl)imidazo[1,2-a]pyridine-6-carboxamide]				10 to 25	95	< 50	95
Cc1cnc(-c2ccc(F)nc2)c(OCC2CC(CNC(=O)c3ccc4nccn4c3)=NO2)c1 (single isomer, unassigned) [Example 11a, N-((5-(((6′-fluoro-5-methyl-[2,3′-bipyridin]-3-yl)oxy)methyl)-4,5-dihydroisoxazol-3-yl)methyl)imidazo[1,2-a]pyridine-6-carboxamide]	88	100		10 to 25		> 250	
Cc1cnc(-c2ccc(F)nc2)c(OCC2CC(CNC(=O)c3ccc4nccn4c3)=NO2)c1 (single isomer, unassigned) [Example 11b, N-((5-(((6′-fluoro-5-methyl-[2,3′-bipyridin]-3-yl)oxy)methyl)-4,5-dihydroisoxazol-3-yl)methyl)imidazo[1,2-a]pyridine-6-carboxamide]				10 to 25	100	< 50	98
Cc1ccc(OCC2CC(CNC(=O)c3ccc4nccn4c3)=NO2)c(-c2ccc(F)nc2)n1 (single isomer, unassigned) [Example 12a, N-((5-(((6′-fluoro-6-methyl-[2,3′-bipyridin]-3-yl)oxy)methyl)-4,5-dihydroisoxazol-3-yl)methyl)imidazo[1,2-a]pyridine-6-carboxamide]		96		10 to 25	45	> 250	
Cc1ccc(OCC2CC(CNC(=O)c3ccc4nccn4c3)=NO2)c(-c2ccc(F)nc2)n1 (single isomer, unassigned) [Example 12b, N-((5-(((6′-fluoro-6-methyl-[2,3′-bipyridin]-3-yl)oxy)methyl)-4,5-dihydroisoxazol-3-yl)methyl)imidazo[1,2-a]pyridine-6-carboxamide]				10 to 25	100	< 50	100
O=C(NCC1=NOC(COc2cc(Cl)cnc2-c2cccnc2)C1)c1ccc2nccn2c1 (single isomer, unassigned) [Example 13a, N-((5-(((5-chloro-[2,3′-bipyridin]-3-yl)oxy)methyl)-4,5-dihydroisoxazol-3-yl)methyl)imidazo[1,2-a]pyridine-6-carboxamide]		93		> 25	20	> 250	
O=C(NCC1=NOC(COc2cc(Cl)cnc2-c2cccnc2)C1)c1ccc2nccn2c1 (single isomer, unassigned) [Example 13b, N-((5-(((5-chloro-[2,3′-bipyridin]-3-yl)oxy)methyl)-4,5-dihydroisoxazol-3-yl)methyl)imidazo[1,2-a]pyridine-6-carboxamide]				10 to 25	100	< 50	100
